Experiment [1] addresses human α2δ-1 subunit of Cav2.2 calcium channel (Homo sapiens (Human), UniProt P54289). Nature of the experiment: Binding assay to human α2δ-1 subunit of Cav2.2 calcium channel ([3H]-Gabapentin). The note with it: read-out: Ki (nM) α2δ-1. The method in brief: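 [3H]-gabapentin binding, 60 min at 27° C; nonspecific binding defined with 10 μM pregabalin. Terminated by filtration on PEI-presoaked GF/C filters, ice-cold 50 mM Tris-HCl pH 7.4 washes, then scintillation counting.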

The target in experiment [2] is human norepinephrine transporter (NET) (Homo sapiens (Human), UniProt P23975). The experiment can be described thus: Binding assay to human norepinephrine transporter (NET) ([3H]-Nisoxetin). As to conditions: Table 2, dual compounds; [3H]-Nisoxetin binding. The protocol:
Binding Assay to Human Norepinephrine Transporter (NET).
Human norepinephrine transporter (NET) enriched membranes (5 μg) were incubated with 5 nM of radiolabeled [3H]-Nisoxetin in assay buffer containing 50 mM Tris-HCl, 120 mM NaCl, 5 mM KCl, pH 7.4.
NSB (non specific binding) was measured by adding 1 μM. After 60 min incubation at 4° C., binding reaction was terminated by filtering through Multiscreen GF/C (Millipore) presoaked in 0.5% polyethyleneimine in Vacuum Manifold Station, followed by 3 washes with ice-cold filtration buffer containing 50 mM Tris-HCl, 0.9% NaCl, pH 7.4.
Filter plates were dried at 60° C. for 1 hour and 30 μl of scintillation cocktail were added to each well before radioactivity reading.

Setting [3] is: Table 2, dual compounds, [3H]-Gabapentin binding.
[4] abbreviates: binding to α2δ-1, [3H]-Gabapentin.

Where two headings read alike, the source gives them in different places.

Among the data in patent US10590140B2, “Tetrahydropyrimidodiazepine and dihydropyridodiazepine compounds for treating pain and pain related conditions” (ESTEVE PHARMACEUTICALS, S.A., priority 2016, dated 2020) are Ki values, retold here.

By Ki is commonly meant a measure of affinity in units of concentration, obtained from inhibition or displacement.

Chain of human α2δ-1 subunit of Cav2.2 calcium channel (P54289 25-1103): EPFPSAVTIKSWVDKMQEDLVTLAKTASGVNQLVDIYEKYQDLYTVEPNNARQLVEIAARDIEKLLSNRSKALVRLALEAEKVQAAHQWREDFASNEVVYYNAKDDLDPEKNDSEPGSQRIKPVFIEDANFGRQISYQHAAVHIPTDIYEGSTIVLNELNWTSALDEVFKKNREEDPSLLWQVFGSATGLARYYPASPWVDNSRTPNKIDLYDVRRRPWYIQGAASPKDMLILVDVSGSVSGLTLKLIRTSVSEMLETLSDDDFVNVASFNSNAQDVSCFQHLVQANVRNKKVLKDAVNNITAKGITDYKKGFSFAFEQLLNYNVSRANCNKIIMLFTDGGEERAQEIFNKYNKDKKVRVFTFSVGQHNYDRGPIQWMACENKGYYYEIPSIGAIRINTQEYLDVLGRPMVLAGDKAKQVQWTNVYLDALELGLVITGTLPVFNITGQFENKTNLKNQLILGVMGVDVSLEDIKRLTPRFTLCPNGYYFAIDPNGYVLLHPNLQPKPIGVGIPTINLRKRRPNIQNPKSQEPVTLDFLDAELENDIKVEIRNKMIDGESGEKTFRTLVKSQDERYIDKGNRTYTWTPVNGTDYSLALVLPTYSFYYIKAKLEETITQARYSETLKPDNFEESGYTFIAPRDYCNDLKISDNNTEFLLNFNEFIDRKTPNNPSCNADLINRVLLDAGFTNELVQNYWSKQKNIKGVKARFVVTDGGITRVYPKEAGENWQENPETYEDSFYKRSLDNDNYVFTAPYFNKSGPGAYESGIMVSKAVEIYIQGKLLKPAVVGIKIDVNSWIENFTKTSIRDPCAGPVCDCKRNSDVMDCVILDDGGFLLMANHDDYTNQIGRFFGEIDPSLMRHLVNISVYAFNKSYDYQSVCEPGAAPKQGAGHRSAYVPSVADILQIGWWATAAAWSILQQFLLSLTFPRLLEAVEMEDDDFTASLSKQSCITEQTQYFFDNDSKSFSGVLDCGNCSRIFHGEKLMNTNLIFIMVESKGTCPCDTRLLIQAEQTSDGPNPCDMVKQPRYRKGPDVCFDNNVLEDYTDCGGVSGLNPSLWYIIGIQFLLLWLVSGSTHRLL
Chain of human norepinephrine transporter (NET) (P23975 whole entry): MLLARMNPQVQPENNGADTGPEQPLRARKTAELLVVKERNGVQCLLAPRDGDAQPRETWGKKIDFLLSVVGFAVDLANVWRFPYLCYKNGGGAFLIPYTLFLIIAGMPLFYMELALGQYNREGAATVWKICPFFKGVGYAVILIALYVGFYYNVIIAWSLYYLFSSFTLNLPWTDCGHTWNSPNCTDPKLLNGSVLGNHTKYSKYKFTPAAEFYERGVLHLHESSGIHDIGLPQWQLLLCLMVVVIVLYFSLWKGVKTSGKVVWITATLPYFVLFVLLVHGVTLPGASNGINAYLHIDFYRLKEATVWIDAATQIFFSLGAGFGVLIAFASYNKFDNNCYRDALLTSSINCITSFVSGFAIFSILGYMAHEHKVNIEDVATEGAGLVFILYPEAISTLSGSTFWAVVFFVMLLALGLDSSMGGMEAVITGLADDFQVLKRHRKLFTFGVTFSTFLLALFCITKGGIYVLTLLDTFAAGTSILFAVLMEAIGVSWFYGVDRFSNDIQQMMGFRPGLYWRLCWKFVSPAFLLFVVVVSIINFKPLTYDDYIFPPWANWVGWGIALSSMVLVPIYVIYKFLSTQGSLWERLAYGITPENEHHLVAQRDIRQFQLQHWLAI

`CNCCC(Oc1cccc(N2CCN(C)c3nc(SC)ncc3C2=O)c1)c1ccccc1` (stereo not drawn) [Example 151, 9-methyl-6-(3-(3-(methylamino)-1-phenylpropoxy)phenyl)-2-(methylthio)-6,7,8,9-tetrahydro-5H-pyrimido[4,5-e][1,4]diazepin-5-one]: the Ki in experiment [1] (setting [3]) is 500 to 3000 nM; in experiment [1] (setting [4]), 500 to 3000 nM; in experiment [2], less than 100 nM.
Consider `CNCC[C@@H](Oc1cccc(N2CCN(C)c3nc(SC)ncc3C2=O)c1)c1ccccc1` [Example 152, (R)-9-methyl-6-(3-(3-(methylamino)-1-phenylpropoxy)phenyl)-2-(methylthio)-6,7,8,9-tetrahydro-5H-pyrimido[4,5-e][1,4]diazepin-5-one], for which the values for the Ki in experiment [1] (setting [3]), in experiment [1] (setting [4]) and in experiment [2] were 500 to 3000 nM, 500 to 3000 nM and 100 to 500 nM, respectively.
Turning to `CNCC[C@H](Oc1cccc(N2CCN(C)c3nc(SC)ncc3C2=O)c1)c1ccccc1` [Example 153, (S)-9-methyl-6-(3-(3-(methylamino)-1-phenylpropoxy)phenyl)-2-(methylthio)-6,7,8,9-tetrahydro-5H-pyrimido[4,5-e][1,4]diazepin-5-one], the inhibition constant Ki was more than 3000 nM in experiment [1] (setting [3]), more than 3000 nM in experiment [1] (setting [4]) and less than 100 nM in experiment [2].
Take `CCNc1ncc2c(n1)N(C)CCN(c1cccc(OC(CNC)c3ccccc3)c1)C2=O` (stereo not drawn) [Example 154, 2-(ethylamino)-9-methyl-6-(3-(2-(methylamino)-1-phenylethoxy)phenyl)-6,7,8,9-tetrahydro-5H-pyrimido[4,5-e][1,4]diazepin-5-one]: the Ki in experiment [1] (setting [3]) was 500 to 3000 nM; in experiment [1] (setting [4]) it was 500 to 3000 nM; in experiment [2], 100 to 500 nM.
`CCNc1ncc2c(n1)N(C)CCN(c1ccc(OC(CNC)c3ccccc3)cc1)C2=O` (stereo not drawn) [Example 159, 2-(ethylamino)-9-methyl-6-(4-(2-(methylamino)-1-phenylethoxy)phenyl)-6,7,8,9-tetrahydro-5H-pyrimido[4,5-e][1,4]diazepin-5-one]: the Ki was more than 3000 nM in experiment [1] (setting [3]), more than 3000 nM in experiment [1] (setting [4]) and more than 1000 nM in experiment [2].
Turning to `CNCCC(OCc1cccc(N2CCN(C)c3nc(SC)ncc3C2=O)c1)c1ccccc1` (stereo not drawn) [Example 163, 9-methyl-6-(3-((3-(methylamino)-1-phenylpropoxy)methyl)phenyl)-2-(methylthio)-6,7,8,9-tetrahydro-5H-pyrimido[4,5-e][1,4]diazepin-5-one], the Ki in experiment [1] (setting [3]) was in the range of 500 to 3000 nM; in experiment [1] (setting [4]) it was 500 to 3000 nM; in experiment [2] it was 100 to 500 nM.
For the compound `CNCC[C@@H](OCc1cccc(N2CCN(C)c3nc(SC)ncc3C2=O)c1)c1ccccc1` [Example 164, (R)-9-methyl-6-(3-((3-(methylamino)-1-phenylpropoxy)methyl)phenyl)-2-(methylthio)-6,7,8,9-tetrahydro-5H-pyrimido[4,5-e][1,4]diazepin-5-one], the inhibition constant (Ki) in experiment [1] (setting [3]), in experiment [1] (setting [4]) and in experiment [2] was 100 to 500 nM in each case.
With `CNCC[C@H](OCc1cccc(N2CCN(C)c3nc(SC)ncc3C2=O)c1)c1ccccc1` [Example 165, (S)-9-methyl-6-(3-((3-(methylamino)-1-phenylpropoxy)methyl)phenyl)-2-(methylthio)-6,7,8,9-tetrahydro-5H-pyrimido[4,5-e][1,4]diazepin-5-one], the results for the Ki in experiment [1] (setting [3]), in experiment [1] (setting [4]) and in experiment [2] were more than 3000 nM, more than 3000 nM and 100 to 500 nM, respectively.
Regarding `CCNc1ncc2c(n1)N(C)CCN(c1cccc(COCC(NC)c3ccccc3)c1)C2=O` (stereo not drawn) [Example 166, 2-(ethylamino)-9-methyl-6-(3-((2-(methylamino)-2-phenylethoxy)methyl)phenyl)-6,7,8,9-tetrahydro-5H-pyrimido[4,5-e][1,4]diazepin-5-one], the Ki was 500 to 3000 nM in experiment [1] (setting [3]), more than 3000 nM in experiment [1] (setting [4]) and 500 to 1000 nM in experiment [2].
Taken in the same sequence, the figures for `CNC(COCc1cccc(N2CCN(C)c3nc(SC)ncc3C2=O)c1)c1ccccc1` (stereo not drawn) [Example 167, 9-methyl-6-(3-((2-(methylamino)-2-phenylethoxy)methyl)phenyl)-2-(methylthio)-6,7,8,9-tetrahydro-5H-pyrimido[4,5-e][1,4]diazepin-5-one] were more than 3000 nM, more than 3000 nM and more than 1000 nM.
Taken in the same sequence, the figures for `CCNc1ncc2c(n1)N(C)CCN(c1cccc(C(C)(C)CNC)c1)C2=O` [Example 173, 2-(ethylamino)-9-methyl-6-(3-(2-methyl-1-(methylamino)propan-2-yl)phenyl)-6,7,8,9-tetrahydro-5H-pyrimido[4,5-e][1,4]diazepin-5-one] were 500 to 3000 nM, 500 to 3000 nM and more than 1000 nM.
As for `CCNc1ncc2c(n1)N(C)CCN(c1cccc(COC3(c4ccccc4)CCNCC3)c1)C2=O` [Example 176, 2-(ethylamino)-9-methyl-6-(3-(((4-phenylpiperidin-4-yl)oxy)methyl)phenyl)-6,7,8,9-tetrahydro-5H-pyrimido[4,5-e][1,4]diazepin-5-one], the figures for the Ki in experiment [1] (setting [3]), in experiment [1] (setting [4]) and in experiment [2] were 500 to 3000 nM, 500 to 3000 nM and more than 1000 nM, respectively.
For the compound `CSc1ncc2c(n1)N(C)CCN(c1cccc(COC3(c4ccccc4)CCNCC3)c1)C2=O` [Example 179, 9-methyl-2-(methylthio)-6-(3-(((4-phenylpiperidin-4-yl)oxy)methyl)phenyl)-6,7,8,9-tetrahydro-5H-pyrimido[4,5-e][1,4]diazepin-5-one], the results for the inhibitory constant (Ki) in experiment [1] (setting [3]), in experiment [1] (setting [4]) and in experiment [2] were more than 3000 nM, more than 3000 nM and more than 1000 nM, respectively.
Turning to `CCNc1ncc2c(n1)N(C)CCN(Cc1ccccc1OC(CCNC)c1ccccc1)C2=O` (stereo not drawn) [Example 409, 2-(ethylamino)-9-methyl-6-(2-(3-(methylamino)-1-phenylpropoxy)benzyl)-6,7,8,9-tetrahydro-5H-pyrimido[4,5-e][1,4]diazepin-5-one], in experiment [1] (setting [4]), the Ki is more than 3000 nM.
On the same count and under the same terms, under `CCNc1ncc2c(n1)N(C)CCN(Cc1ccccc1OC(CNC)c1ccccc1)C2=O` (stereo not drawn) [Example 410, 2-(ethylamino)-9-methyl-6-(2-(2-(methylamino)-1-phenylethoxy)benzyl)-6,7,8,9-tetrahydro-5H-pyrimido[4,5-e][1,4]diazepin-5-one] stands more than 3000 nM.
In the case of `CCNc1ncc2c(n1)N(C)CCN(Cc1ccccc1COC(CNC)c1ccccc1)C2=O` (stereo not drawn) [Example 412, 2-(ethylamino)-9-methyl-6-(2-((2-(methylamino)-1-phenylethoxy)methyl)benzyl)-6,7,8,9-tetrahydro-5H-pyrimido[4,5-e][1,4]diazepin-5-one], the inhibition constant (Ki) in experiment [1] (setting [4]) was more than 3000 nM.
Same read-out and setting: under `CNCCC(OCc1ccccc1CN1CCN(C)c2nc(C)ncc2C1=O)c1ccccc1` (stereo not drawn) [Example 421, 2,9-dimethyl-6-(2-((3-(methylamino)-1-phenylpropoxy)methyl)benzyl)-6,7,8,9-tetrahydro-5H-pyrimido[4,5-e][1,4]diazepin-5-one] stands more than 3000 nM; under `CNCC(OCc1ccccc1CN1CCN(C)c2nc(C)ncc2C1=O)c1ccccc1` (stereo not drawn) [Example 424, 2,9-dimethyl-6-(2-((2-(methylamino)-1-phenylethoxy)methyl)benzyl)-6,7,8,9-tetrahydro-5H-pyrimido[4,5-e][1,4]diazepin-5-one], more than 3000 nM.
With `CNCCC(Oc1cccc(CN2CCN(C)c3ncncc3C2=O)c1)c1ccccc1` (stereo not drawn) [Example 429, 9-methyl-6-(3-(3-(methylamino)-1-phenylpropoxy)benzyl)-6,7,8,9-tetrahydro-5H-pyrimido[4,5-e][1,4]diazepin-5-one], in experiment [1] (setting [4]), the inhibition constant (Ki) was more than 3000 nM.
Take `CNCCC(Oc1ccccc1CN1CCN(C)c2ncncc2C1=O)c1ccccc1` (stereo not drawn) [Example 431, 9-methyl-6-(2-(3-(methylamino)-1-phenylpropoxy)benzyl)-6,7,8,9-tetrahydro-5H-pyrimido[4,5-e][1,4]diazepin-5-one]: the inhibition constant (Ki) in experiment [1] (setting [4]) is more than 3000 nM.
Take `CNCC(Oc1ccccc1CN1CCN(C)c2ncncc2C1=O)c1ccccc1` (stereo not drawn) [Example 432, 9-methyl-6-(2-(2-(methylamino)-1-phenylethoxy)benzyl)-6,7,8,9-tetrahydro-5H-pyrimido[4,5-e][1,4]diazepin-5-one]: the Ki in experiment [1] (setting [4]) was more than 3000 nM.
For the compound `CCNc1ncc2c(n1)N(C)CCN(c1cccc(CCN3CCC(c4ccccc4)(N(C)C)CC3)c1)C2=O` [Example 438, 6-(3-(2-(4-(dimethylamino)-4-phenylpiperidin-1-yl)ethyl)phenyl)-2-(ethylamino)-9-methyl-6,7,8,9-tetrahydro-5H-pyrimido[4,5-e][1,4]diazepin-5-one], the inhibitory constant (Ki) in experiment [1] (setting [4]) was in the range of 500 to 3000 nM.
Same read-out and setting: the result for `CCNc1ncc2c(n1)N(C)CCN(c1cccc(OCCN3CCCCC3)c1)C2=O` [Example 439, 2-(ethylamino)-9-methyl-6-(3-(2-(piperidin-1-yl)ethoxy)phenyl)-6,7,8,9-tetrahydro-5H-pyrimido[4,5-e][1,4]diazepin-5-one] reads 500 to 3000 nM; that for `CCNc1ncc2c(n1)N(C)CCN(c1cccc(OCCN3CCOCC3)c1)C2=O` [Example 440, 2-(ethylamino)-9-methyl-6-(3-(2-morpholinoethoxy)phenyl)-6,7,8,9-tetrahydro-5H-pyrimido[4,5-e][1,4]diazepin-5-one], 500 to 3000 nM.
Turning to `CCNc1ncc2c(n1)N(C)CCN(c1cccc(-c3nnc(CN4CCC(c5ccccc5)(N(C)C)CC4)o3)c1)C2=O` [Example 441, 6-(3-(5-((4-(dimethylamino)-4-phenylpiperidin-1-yl)methyl)-1,3,4-oxadiazol-2-yl)phenyl)-2-(ethylamino)-9-methyl-6,7,8,9-tetrahydro-5H-pyrimido[4,5-e][1,4]diazepin-5-one], the inhibition constant Ki in experiment [1] (setting [4]) lay in the range of 100 to 500 nM.
